Common to all, as to assay type: biochemical
Common to all, as to conditions: Caliper assay at 1 mM ATP

One assay concerns the target JAK2 (Homo sapiens (Human), UniProt O60674). In words: JAK Caliper Enzyme Assay at 1 mM ATP (JAK2).
For the next assay, the target named is TYK2 (Homo sapiens (Human), UniProt P29597). In words: JAK Caliper Enzyme Assay at 1 mM ATP (TYK2).
The next assay has as its target JAK1 (Homo sapiens (Human), UniProt P23458). In words: JAK Caliper Enzyme Assay at 1 mM ATP (JAK1).
The target of another assay is JAK3 (Homo sapiens (Human), UniProt P52333). In words: JAK Caliper Enzyme Assay at 1 mM ATP (JAK3).
Chain of JAK3 (P52333 whole entry, species assumed): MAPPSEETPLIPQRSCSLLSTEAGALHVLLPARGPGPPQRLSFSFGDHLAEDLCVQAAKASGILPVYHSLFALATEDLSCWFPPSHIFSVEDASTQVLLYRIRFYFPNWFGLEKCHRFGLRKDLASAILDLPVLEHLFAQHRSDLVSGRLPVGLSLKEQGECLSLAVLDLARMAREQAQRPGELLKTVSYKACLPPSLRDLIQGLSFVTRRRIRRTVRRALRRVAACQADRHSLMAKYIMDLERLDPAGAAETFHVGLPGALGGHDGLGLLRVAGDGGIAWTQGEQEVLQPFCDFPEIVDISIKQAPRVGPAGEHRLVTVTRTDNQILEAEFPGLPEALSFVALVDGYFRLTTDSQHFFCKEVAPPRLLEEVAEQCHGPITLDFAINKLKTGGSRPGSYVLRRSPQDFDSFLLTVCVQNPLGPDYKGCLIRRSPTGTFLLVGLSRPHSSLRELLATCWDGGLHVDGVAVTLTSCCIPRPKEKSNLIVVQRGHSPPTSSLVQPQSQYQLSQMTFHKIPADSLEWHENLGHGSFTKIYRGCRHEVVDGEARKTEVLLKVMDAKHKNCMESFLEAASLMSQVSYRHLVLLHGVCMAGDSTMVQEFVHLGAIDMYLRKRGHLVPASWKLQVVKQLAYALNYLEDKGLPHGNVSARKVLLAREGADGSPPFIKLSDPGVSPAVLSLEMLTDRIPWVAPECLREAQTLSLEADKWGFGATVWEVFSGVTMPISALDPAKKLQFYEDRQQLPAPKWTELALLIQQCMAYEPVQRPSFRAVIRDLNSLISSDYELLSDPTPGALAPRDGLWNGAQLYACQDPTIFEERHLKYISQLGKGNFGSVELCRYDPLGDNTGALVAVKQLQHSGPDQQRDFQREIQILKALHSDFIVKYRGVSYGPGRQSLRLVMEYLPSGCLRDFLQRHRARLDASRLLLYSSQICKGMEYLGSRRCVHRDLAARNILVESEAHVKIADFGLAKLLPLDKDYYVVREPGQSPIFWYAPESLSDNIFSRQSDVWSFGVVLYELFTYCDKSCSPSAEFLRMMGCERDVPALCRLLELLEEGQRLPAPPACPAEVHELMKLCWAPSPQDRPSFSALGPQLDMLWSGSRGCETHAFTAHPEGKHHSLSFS

Structures can show the parent of a compound that is named as a salt.

Chain of JAK2 (O60674 whole entry, species assumed): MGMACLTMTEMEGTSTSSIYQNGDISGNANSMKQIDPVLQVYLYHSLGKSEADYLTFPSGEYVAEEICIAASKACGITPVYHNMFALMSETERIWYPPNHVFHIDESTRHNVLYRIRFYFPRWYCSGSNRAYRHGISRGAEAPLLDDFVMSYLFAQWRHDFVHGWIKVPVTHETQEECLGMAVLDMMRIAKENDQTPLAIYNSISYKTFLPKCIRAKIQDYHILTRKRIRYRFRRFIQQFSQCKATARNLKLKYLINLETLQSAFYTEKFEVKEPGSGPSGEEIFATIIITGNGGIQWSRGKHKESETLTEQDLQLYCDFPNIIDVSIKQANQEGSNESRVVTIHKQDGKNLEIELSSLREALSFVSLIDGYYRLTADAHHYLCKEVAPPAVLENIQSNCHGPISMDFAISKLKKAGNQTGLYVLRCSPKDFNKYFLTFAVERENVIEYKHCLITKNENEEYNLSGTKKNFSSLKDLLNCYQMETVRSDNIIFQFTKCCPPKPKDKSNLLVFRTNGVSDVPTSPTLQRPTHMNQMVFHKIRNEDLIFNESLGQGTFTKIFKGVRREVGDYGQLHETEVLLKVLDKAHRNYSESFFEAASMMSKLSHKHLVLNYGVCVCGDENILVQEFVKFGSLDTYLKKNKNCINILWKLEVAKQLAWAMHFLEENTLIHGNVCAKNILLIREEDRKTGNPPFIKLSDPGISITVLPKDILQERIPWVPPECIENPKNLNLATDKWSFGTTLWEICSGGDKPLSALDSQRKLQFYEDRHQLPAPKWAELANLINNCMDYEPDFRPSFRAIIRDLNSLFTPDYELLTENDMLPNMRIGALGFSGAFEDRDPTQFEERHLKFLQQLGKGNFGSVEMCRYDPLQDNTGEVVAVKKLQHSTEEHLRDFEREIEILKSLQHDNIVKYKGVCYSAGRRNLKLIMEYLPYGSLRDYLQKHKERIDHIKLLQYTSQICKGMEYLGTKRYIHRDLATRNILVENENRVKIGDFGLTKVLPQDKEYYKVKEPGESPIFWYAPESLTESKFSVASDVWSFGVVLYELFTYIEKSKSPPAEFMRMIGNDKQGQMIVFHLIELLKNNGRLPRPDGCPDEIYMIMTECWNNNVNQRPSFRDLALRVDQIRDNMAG
Chain of TYK2 (P29597 whole entry, species assumed): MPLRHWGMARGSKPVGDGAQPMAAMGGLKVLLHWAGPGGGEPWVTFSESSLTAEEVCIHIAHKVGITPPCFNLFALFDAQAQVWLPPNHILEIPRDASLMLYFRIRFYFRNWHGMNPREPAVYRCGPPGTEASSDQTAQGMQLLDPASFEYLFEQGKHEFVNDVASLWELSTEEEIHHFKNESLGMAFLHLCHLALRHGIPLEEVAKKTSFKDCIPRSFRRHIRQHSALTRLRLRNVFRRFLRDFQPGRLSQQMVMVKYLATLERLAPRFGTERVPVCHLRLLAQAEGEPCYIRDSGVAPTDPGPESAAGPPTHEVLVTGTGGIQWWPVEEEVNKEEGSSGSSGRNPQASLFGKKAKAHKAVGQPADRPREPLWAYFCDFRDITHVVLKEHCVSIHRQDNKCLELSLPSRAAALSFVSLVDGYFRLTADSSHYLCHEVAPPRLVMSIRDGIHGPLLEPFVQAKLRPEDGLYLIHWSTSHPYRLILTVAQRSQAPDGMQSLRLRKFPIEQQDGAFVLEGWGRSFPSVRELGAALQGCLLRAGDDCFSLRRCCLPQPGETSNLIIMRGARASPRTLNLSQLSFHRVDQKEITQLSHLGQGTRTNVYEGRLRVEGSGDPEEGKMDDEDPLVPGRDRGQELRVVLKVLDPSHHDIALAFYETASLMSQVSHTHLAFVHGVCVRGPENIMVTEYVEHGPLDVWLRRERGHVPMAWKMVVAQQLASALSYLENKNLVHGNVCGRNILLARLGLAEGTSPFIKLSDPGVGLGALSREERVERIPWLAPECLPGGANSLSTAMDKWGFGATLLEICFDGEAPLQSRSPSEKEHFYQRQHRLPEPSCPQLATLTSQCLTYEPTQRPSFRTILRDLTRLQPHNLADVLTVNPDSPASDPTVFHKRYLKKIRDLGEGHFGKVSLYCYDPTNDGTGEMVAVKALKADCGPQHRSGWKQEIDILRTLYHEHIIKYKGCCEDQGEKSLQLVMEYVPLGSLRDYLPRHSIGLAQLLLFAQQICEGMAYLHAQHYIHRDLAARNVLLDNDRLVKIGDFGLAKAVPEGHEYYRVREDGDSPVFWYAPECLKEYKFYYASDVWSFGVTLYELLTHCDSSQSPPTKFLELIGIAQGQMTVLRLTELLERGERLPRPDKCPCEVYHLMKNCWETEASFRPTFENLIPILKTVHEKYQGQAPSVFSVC
Chain of JAK1 (P23458 whole entry, species assumed): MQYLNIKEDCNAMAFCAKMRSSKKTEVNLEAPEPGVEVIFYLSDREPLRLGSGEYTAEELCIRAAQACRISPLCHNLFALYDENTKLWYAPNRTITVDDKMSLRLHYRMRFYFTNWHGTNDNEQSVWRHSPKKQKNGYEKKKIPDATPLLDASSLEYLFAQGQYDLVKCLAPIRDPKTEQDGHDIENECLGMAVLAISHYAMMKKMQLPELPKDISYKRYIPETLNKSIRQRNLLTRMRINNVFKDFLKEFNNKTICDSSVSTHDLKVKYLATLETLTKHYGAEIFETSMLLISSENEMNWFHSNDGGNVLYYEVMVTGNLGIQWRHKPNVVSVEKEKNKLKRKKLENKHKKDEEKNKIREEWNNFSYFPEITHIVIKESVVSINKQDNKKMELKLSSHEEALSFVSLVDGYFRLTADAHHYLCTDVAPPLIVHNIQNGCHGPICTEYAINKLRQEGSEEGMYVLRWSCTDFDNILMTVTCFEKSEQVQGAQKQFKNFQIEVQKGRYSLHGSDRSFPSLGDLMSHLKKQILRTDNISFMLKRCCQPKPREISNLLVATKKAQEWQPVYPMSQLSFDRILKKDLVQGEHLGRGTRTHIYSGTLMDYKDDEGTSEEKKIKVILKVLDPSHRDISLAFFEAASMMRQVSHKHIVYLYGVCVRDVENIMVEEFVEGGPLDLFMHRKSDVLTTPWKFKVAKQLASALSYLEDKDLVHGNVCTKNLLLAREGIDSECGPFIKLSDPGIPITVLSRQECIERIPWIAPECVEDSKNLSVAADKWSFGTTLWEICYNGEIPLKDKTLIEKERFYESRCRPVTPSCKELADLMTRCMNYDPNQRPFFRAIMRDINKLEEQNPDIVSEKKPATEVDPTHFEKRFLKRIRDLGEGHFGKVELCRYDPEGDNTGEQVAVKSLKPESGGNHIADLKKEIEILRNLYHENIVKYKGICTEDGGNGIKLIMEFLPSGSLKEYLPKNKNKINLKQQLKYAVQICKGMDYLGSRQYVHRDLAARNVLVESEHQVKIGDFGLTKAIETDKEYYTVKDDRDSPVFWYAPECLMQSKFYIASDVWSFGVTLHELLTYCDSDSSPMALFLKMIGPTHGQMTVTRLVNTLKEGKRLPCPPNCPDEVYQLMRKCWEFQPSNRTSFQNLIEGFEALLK

The IC50 is the point on the concentration scale where inhibition reaches its midpoint. Low values mean greater potency, high ones weaker potency. For `CNC(=O)c1n[nH]c2cc(-c3cc(F)c(O)cc3CC(F)(F)F)nc(NCc3ccccc3N(C)S(=O)(=O)c3cn[nH]c3)c12` [Example 58, 6-(5-fluoro-4-hydroxy-2-(2,2,2-trifluoroethyl)phenyl)-N-methyl-4-((2-(N-methyl-1H-pyrazole-4-sulfonamido)benzyl)amino)-1H-pyrazolo[4,3-c]pyridine-3-carboxamide], the IC50 at JAK2 was 54.4 nM; against TYK2 it was 67.5 nM; against JAK1, 10.3 nM; on JAK3, 236 nM.
The corresponding values for `CCN(c1ncccc1CNc1nc(-c2cc(F)c(O)cc2CC(F)(F)F)cc2[nH]nc(C(N)=O)c12)S(C)(=O)=O` [Example 52, 4-[({2-[ethyl(methyl-sulfonyl)-amino]pyridin-3-yl}methyl)amino]-6-[5-fluoro-4-hydroxy-2-(2,2,2-trifluoroethyl)phenyl]-1H-pyrazolo[4,3-c]pyridine-3-carboxamide] are 15 nM, 109 nM, 2.9 nM and 46.3 nM.
The corresponding values for `CCN(c1nccnc1CNc1nc(-c2cc(F)c(O)cc2CC(F)(F)F)cc2[nH]nc(C(N)=O)c12)S(C)(=O)=O` [Example 80, 4-[({3-[ethyl(methylsulfonyl)amino]pyrazin-2-yl}methyl)amino]-6-[5-fluoro-4-hydroxy-2-(2,2,2-trifluoroethyl)phenyl]-1H-pyrazolo[4,3-c]pyridine-3-carboxamide] are 16.2 nM, 167 nM, 2.9 nM and 49.2 nM.
On the same counts, the results for `Cc1ccc(N(C)S(C)(=O)=O)c(CNc2nc(-c3cc(F)c(O)cc3CC(F)(F)F)cc3[nH]ncc23)c1` [Example 150, N-{2-[({6-[5-Fluoro-4-hydroxy-2-(2,2,2-trifluoroethyl)phenyl]-1H-pyrazolo[4,3-c]pyridin-4-yl}amino)methyl]-4-methylphenyl}-N-methylmethanesulfonamide] are 48.9 nM, 4160 nM, 21.6 nM and 77.8 nM.
Turning to `CNC(=O)c1n[nH]c2cc(-c3cc(F)c(O)cc3CC(F)(F)F)nc(NCc3cc(C)ccc3N(C)S(C)(=O)=O)c12` [Example 11, 6-[5-fluoro-4-hydroxy-2-(2,2,2-trifluoroethyl)phenyl]-N-methyl-4-({5-methyl-2-[methyl(methyl-sulfonyl)amino]benzyl}amino)-1H-pyrazolo[4,3-c]pyridine-3-carboxamide], the IC50 against JAK2 came out at 36.9 nM; against TYK2, 229 nM; against JAK1, 8.7 nM; at JAK3, 207 nM.
For `CCc1cc(O)c(F)cc1-c1cc2[nH]nc(C(=O)NC)c2c(N[C@H](C)c2ccccc2N(C)S(C)(=O)=O)n1` [Example 38, 6-(2-Ethyl-5-fluoro-4-hydroxyphenyl)-N-methyl-4-{[(1R)-1-{2-[methyl(methylsulfonyl)amino]phenyl}ethyl]amino}-1H-pyrazolo[4,3-c]pyridine-3-carboxamide], the IC50 came to 25 nM against JAK2, 17.8 nM on TYK2, 4 nM against JAK1 and 122 nM on JAK3.
On the same counts, the results for `CCN(c1ccc(O)cc1CNc1nc(-c2cc(F)c(O)cc2CC(F)(F)F)cc2[nH]nc(C(=O)NC)c12)S(C)(=O)=O` [Example 34, 4-({2-[ethyl(methyl-sulfonyl)amino]-5-hydroxybenzyl}amino)-6-[5-fluoro-4-hydroxy-2-(2,2,2-trifluoroethyl)phenyl]-N-methyl-1H-pyrazolo[4,3-c]pyridine-3-carboxamide] are 27.8 nM, 24.6 nM, 5.1 nM and 98.4 nM.
On to `CCc1cc(O)c(F)cc1-c1cc2[nH]nc(C(=O)NC)c2c(NCc2ccccc2N(C)S(=O)(=O)CC)n1` [Example 3, 6-(2-ethyl-5-fluoro-4-hydroxy-phenyl)-4-({2-[(ethylsulfonyl)-(methyl)amino]benzyl}amino)-N-methyl-1H-pyrazolo[4,3-c]pyridine-3-carboxamide], for which the IC50 against JAK2 worked out at 9.6 nM; against TYK2 it was 6.8 nM; at JAK1 it was 1.9 nM; against JAK3 it was 47.5 nM.
For `CCc1cc(O)c(F)cc1-c1cc2[nH]nc(C(N)=O)c2c(NCc2ccccc2N(C)S(=O)(=O)c2ccccc2)n1` [Example 40, 6-(2-Ethyl-5-fluoro-4-hydroxyphenyl)-4-({2-[methyl(phenylsulfonyl)amino]benzyl}amino)-1H-pyrazolo[4,3-c]pyridine-3-carboxamide], the IC50 was determined as 23.1 nM against JAK2, 18.1 nM against TYK2, 4.6 nM against JAK1 and 130 nM against JAK3.
On the same counts, the results for `CCc1cc(O)c(F)cc1-c1cc2[nH]ncc2c(NCc2c(F)cccc2N(C)S(C)(=O)=O)n1` [Example 134, N-[2-({[6-(2-ethyl-5-fluoro-4-hydroxyphenyl)-1H-pyrazolo[4,3-c]pyridin-4-yl]amino}methyl)-3-fluorophenyl]-N-methylmethanesulfonamide hydrochloride] are 1.7 nM, 20.3 nM, < 0.5 nM and 7.6 nM.
Turning to `CCN(c1ccc(Cl)cc1CNc1nc(-c2cc(F)c(O)cc2CC(F)(F)F)cc2[nH]nc(C(N)=O)c12)S(C)(=O)=O` [Example 84, 4-((5-chloro-2-(N-ethylmethylsulfonamido)benzyl)amino)-6-(5-fluoro-4-hydroxy-2-(2,2,2-trifluoro-ethyl)phenyl)-1H-pyrazolo[4,3-c]pyridine-3-carboxamide], the IC50 was determined as 142 nM against JAK2, 880 nM against TYK2, 27.6 nM on JAK1 and 537 nM against JAK3.
On the same counts, the results for `CCc1cc(O)c(F)cc1-c1cc2[nH]ncc2c(N(CC)Cc2cc(C)ccc2N(C)S(C)(=O)=O)n1` [Example 143, N-[2-({ethyl[6-(2-ethyl-5-fluoro-4-hydroxyphenyl)-1H-pyrazolo[4,3-c]pyridin-4-yl]amino}methyl)-4-methylphenyl]-N-methylmethanesulfonamide] are 43.6 nM, 4660 nM, 40.4 nM and 122 nM.
On to `CCc1cc(O)c(F)cc1-c1cc2[nH]ncc2c(N(C)Cc2cc(C)ccc2N(CC)S(C)(=O)=O)n1` [Example 142, N-ethyl-N-[2-({[6-(2-ethyl-5-fluoro-4-hydroxyphenyl)-1H-pyrazolo[4,3-c]pyridin-4-yl](methyl)-amino}methyl)-4-methylphenyl]methanesulfonamide], for which the IC50 against JAK2 came to 7.9 nM; on TYK2, 885 nM; against JAK1, 3.4 nM; against JAK3 it was 27.9 nM.
On the same counts, the results for `CCc1cc(O)c(F)cc1-c1cc2[nH]nc(C(=O)NC)c2c(NCc2ccccc2N(C)S(C)(=O)=O)n1` [Example 19, 6-(2-ethyl-5-fluoro-4-hydroxy-phenyl)-N-methyl-4-({2-[methyl(methyl-sulfonyl)amino]benzyl}amino)-1H-pyrazolo[4,3-c]pyridine-3-carboxamide] are 5.9 nM, 4.8 nM, 0.9 nM and 30.9 nM.
The corresponding values for `CNC(=O)c1n[nH]c2cc(-c3cc(F)c(O)cc3CC(F)(F)F)nc(NCc3ccccc3N(C)S(=O)(=O)CCOC)c12` [Example 60, 6-[5-fluoro-4-hydroxy-2-(2,2,2-trifluoroethyl)phenyl]-4-[(2-{[(2-methoxyethyl)sulfonyl](methyl)amino}benzyl)amino]-N-methyl-1H-pyrazolo[4,3-c]pyridine-3-carboxamide] are 29.2 nM, 56.5 nM, 6.6 nM and 115 nM.
On the same counts, the results for `CCN(c1ccc(O)cc1CNc1nc(-c2cc(F)c(O)cc2CC(F)(F)F)cc2[nH]nc(C(N)=O)c12)S(=O)(=O)c1ccccc1` [Example 43, 4-({2-[ethyl(phenyl-sulfonyl)amino]-5-hydroxybenzyl}amino)-6-[5-fluoro-4-hydroxy-2-(2,2,2-trifluoroethyl)-phenyl]-1H-pyrazolo[4,3-c]pyridine-3-carboxamide] are 302 nM, 439 nM, 55.1 nM and 1070 nM.
Turning to `CNC(=O)c1n[nH]c2nc(-c3cc(F)c(O)cc3CC(F)(F)F)nc(NCc3ccccc3N(C)S(=O)(=O)NC)c12` [Example 110, 6-(5-Fluoro-4-hydroxy-2-(2,2,2-trifluoroethyl)phenyl)-N-methyl-4-((2-(methyl(N-methylsulfamoyl)amino)benzyl)amino)-1H-pyrazolo[3,4-d]pyrimidine-3-carboxamide], the IC50 against JAK2 was 26.9 nM; on TYK2 it was 35 nM; on JAK1 it was 5.4 nM; against JAK3, 120 nM.
As for `CCc1cc(O)c(F)cc1-c1cc2[nH]ncc2c(NCc2ccccc2N(C)S(C)(=O)=O)n1` [Example 131, N-[2-({[6-(2-Ethyl-5-fluoro-4-hydroxyphenyl)-1H-pyrazolo[4,3-c]pyridin-4-yl]amino}methyl)phenyl]-N-methylmethanesulfonamide], the IC50 at JAK2 is 2.1 nM; on TYK2 it was 4.7 nM; at JAK1, < 0.5 nM; on JAK3, 10.2 nM.
The corresponding values for `CCN(c1ncc(F)cc1CNc1nc(-c2cc(F)c(O)cc2CC(F)(F)F)cc2[nH]nc(C(N)=O)c12)S(C)(=O)=O` [Example 79, 4-[({2-[ethyl(methylsulfonyl)amino]-5-fluoropyridin-3-yl}methyl)amino]-6-[5-fluoro-4-hydroxy-2-(2,2,2-trifluoroethyl)phenyl]-1H-pyrazolo[4,3-c]pyridine-3-carboxamide] are 59.1 nM, 698 nM, 10.7 nM and 175 nM.

The values are drawn from patent publication US9518052B2, “Pyrazolopyridines and pyrazolopyrimidines” (Pfizer Inc., priority 2014, dated 2016).
